From PMC10180065, “Mechanistic Studies of Arene–Ruthenium(II) Complexes with Carbothioamidopyrazoles as Alternative Cancer Drugs” (Molecules, 2023)

Columns and labels:
HT29 = assay: MTT cytotoxicity, HT29; type: cell-based, human; conditions: 48 h incubation, read-out: Cytotoxic effect, IC50
Method: (§1) Cytotoxicity was evaluated against fifteen adherent human cancer cell lines using the MTT test: colorectal adenocarcinoma cells Caco2 (ATCC® HTB-37™), colorectal adenocarcinoma cells HT29 (ATCC® HTB-38™), colon colorectal carcinoma HCT116 (ATCC® CCL-247™), colon adenocarcinoma COLO205 (ATCC® CCL-222™), colorectal adenocarcinoma SW620 (ATCC® CCL-227™), colorectal adenocarcinoma grade IV LoVo (ATCC® CCL-229™), hepatocellular carcinoma Hep 3b (ATCC® HB-8064™), endometrium adenocarcinoma HEC1A (ATCC® HTB-112™), Ishikawa (99040201; Sigma–Aldrich Sigma, St. Louis, MO, USA), cervical adenocarcinoma cells HeLa (ATCC® CCL-2™), lung epithelial carcinoma A549 (ATCC® CRM-CCL-185™), breast epithelial adenocarcinoma cell positive for estrogen and progesterone receptors MCF7 (ATCC® HTB-22™) and negative for expression of estrogen receptor HCC38 (ATCC® CRL-2314™), acute promyelocytic leukemia HL-60 (ATCC® CCL-240™), skin melanoma WM115 (ATCC® CRL-1676™), and 1 suspension cancer cell line: acute lymphoblastic leukemia NALM6 (purchased from the German Collection of Microorganisms and Cell Cultures). HT29, NALM6, HCC-38 and HL-60 cells were cultured in RPMI 1640 medium (Thermo Fisher Scientific, Waltham, MA, USA) supplemented with 10% fetal bovine serum and antibiotic (gentamicin 25 μg ml^−1) (Gibco, Grand Island, New York, NY, USA). For the remaining tumor cell lines, Dulbecco’s minimal essential medium (DMEM, Lonza, Visp, Switzerland) supplemented with 10% fetal bovine serum and antibiotic instead of RPMI 1640 was used. In addition, Human Microvascular Endothelial Cells (HMEC1), which were obtained from the American Type Culture Collection (Manassas, VA, USA), were used as a model of normal cells. HMEC-1 were cultured in MCDB131 medium (Corning Life Sciences, Corning, NY, USA), supplemented with 10% fetal bovine serum, 10 ng/mL Epidermal Growth Factor (Millipore, Burlington, MA, USA) and 10 mM glutamine (Corning Life Sciences). All cells were grown at 37 °C in humidified atmosphere of 5% CO2 in air. The exponential growth of cells was maintained by regular passaging at 90% confluence three times a week using 0.025% trypsin/EDTA (Gibco, Grand Island, New York, NY, USA).
(§2) The cytotoxicity was tested by a standard MTT [3-(4,5-dimethylthiazol-2-yl)-2,5-diphenyltetrazolium bromide] (Sigma, St. Louis, MO, USA) microplate cell viability assay. The anticancer activity of the investigated compounds was evaluated in vitro on the basis of their ability to inhibit the proliferation of various cancer cells. Exponentially growing cells were seeded a day before the experiment into a 96-well microplate (Nunc, Roskilde, Denmark) at a density up to 6–8 × 10^3 cells/mL (depending on the cell line) and exposed to the test compounds at a wide range of concentrations for 48 h. Subsequently, various concentrations of the studied compounds (10^−7–10^−5 M) freshly prepared in DMSO (final concentration of <0.1% DMSO) and diluted with complete culture medium were added. After 48 h incubation, the cells were immediately subjected to a cell viability assay. At this time point, the number of viable cells in each well was estimated by the MTT test. Briefly, 50 µL (5 mg/mL final concentration) of MTT was added to each microplate well. This procedure was then followed by a three- to four-hour incubation at 37 °C. After incubation, MTT solution was replaced with 100 µL DMSO/well, which solubilized the formazan crystals formed by the dehydrogenases of metabolically active cells. Purple formazan absorbance was measured spectrophotometrically at 570 nm.

Colo205 [1] = assay: MTT cytotoxicity, Colo205; type: cell-based, human; conditions: 48 h incubation, read-out: Cytotoxic effect, IC50
Method: as §1, §2

SW620 = assay: MTT cytotoxicity, SW620; type: cell-based, human; conditions: 48 h incubation, read-out: Cytotoxic effect, IC50
Method: as §1, §2

LoVo = assay: MTT cytotoxicity, LoVo; type: cell-based, human; conditions: 48 h incubation, read-out: Cytotoxic effect, IC50
Method: as §1, §2

Caco2 = assay: MTT cytotoxicity, Caco2; type: cell-based, human; conditions: 48 h incubation, read-out: Cytotoxic effect, IC50
Method: as §1, §2

Hep 3b = assay: MTT cytotoxicity, Hep 3b; type: cell-based, human; conditions: 48 h incubation, read-out: Cytotoxic effect, IC50
Method: as §1, §2

HEC1A [2] = assay: MTT cytotoxicity, HEC1A; type: cell-based, human; conditions: 48 h incubation, read-out: Cytotoxic effect, IC50
Method: as §1, §2

Ishikawa = assay: MTT cytotoxicity, Ishikawa; type: cell-based, human; conditions: 48 h incubation, read-out: Cytotoxic effect, IC50
Method: as §1, §2

Hela = assay: MTT cytotoxicity, Hela; type: cell-based, human; conditions: 48 h incubation, read-out: Cytotoxic effect, IC50
Method: as §1, §2

A549 = assay: MTT cytotoxicity, A549; type: cell-based, human; conditions: 48 h incubation, read-out: Cytotoxic effect, IC50
Method: as §1, §2

HCC38 = assay: MTT cytotoxicity, HCC38; type: cell-based, human; conditions: 48 h incubation, read-out: Cytotoxic effect, IC50
Method: as §1, §2

MCF7 = assay: MTT cytotoxicity, MCF7; type: cell-based, human; conditions: 48 h incubation, read-out: Cytotoxic effect, IC50
Method: as §1, §2

WM115 = assay: MTT cytotoxicity, WM115; type: cell-based, human; conditions: 48 h incubation, read-out: Cytotoxic effect, IC50
Method: as §1, §2

NALM6 = assay: MTT cytotoxicity, NALM6; type: cell-based, human; conditions: 48 h incubation, read-out: Cytotoxic effect, IC50
Method: as §1, §2

HL60 = assay: MTT cytotoxicity, HL60; type: cell-based, human; conditions: 48 h incubation, read-out: Cytotoxic effect, IC50
Method: as §1, §2

[3] = tested on: human microvascular endothelial cell line HMEC1; assay: MTT cytotoxicity, normal endothelial cells HMEC1; type: cell-based; conditions: for IC50: HMEC1 normal endothelial cells, 48 h incubation, read-out: Cytotoxic effect, IC50; for IC50 for HMEC-1 higher than for cancer cells (selectivity): HMEC-1 vs cancer cells
Method: as §1, §2

Lipophilicity by RP-TLC = type: physicochemical; parameters: key: RM = log(1/Rf − 1), Rf = a/b; conditions: eluent AcCN: H2O at 30–70% v/v, 22 °C
Method: All the experimental solutions of standard substances (0.1 mg/mL) were prepared by dissolving ligands (1a–1d) or ruthenium complexes (2a/3a–2d/3d) in ethanol. Commercially-available octadecyl-modified silica aluminum sheets (20 × 20 cm) were cut into 5 × 10 cm plates. The plates were manually spotted with 1.0 μL of freshly prepared solutions using automatic pipets, 5 mm from each edge. The chromatograms for all compounds (1a/2a/3a–1d/2d/3d) were developed using a horizontal developing chamber and the solvent migration distance was about 4.5 cm. The plates were visually inspected under UV light at 254 nm. Each zone was clearly marked and its distance was manually measured. The RP-TLC analyses of lipophilicity were performed at ambient temperature (22 °C). In this experiment, all measurements were performed in triplicate and the obtained results were used in further calculations. The acetonitrile and water mixtures for ligands 1a–1d and arene–ruthenium(II) complexes 2a/3a–2d/3d were used as mobile phases, with […] content increasing in the range of 30–70% v/v, at 5% intervals. Values of the chromatographic retention coefficient Rf (as shown Formula (1)) and RM (as shown Formula (2)), based on received chromatograms, were calculated and converted as follows:(1) Rf=a/b (2) RM=log1/Rf−1

[4] = pH dependent stability of the complexes (UV–Vis); type: physicochemical; conditions: 24 h and 48 h
Method: The stability measurements were performed on a UV 1800 Shimadzu spectrophotometer (Kyoto, Japan) at room temperature. The complexes 2d and 3d were tested for the stabilities in buffer Na2HPO4 (pH 4 and 8). UV–Vis spectra were recorded hourly for 48 h at 22 °C. The spectra were recorded in the range of 200–800 nm over a time course of 0, 24, and 48 h.

PARP1 [5] = assay: Cleaved PARP level (ELISA), WM115 cells; type: cell-based, human; conditions: WM115, 24 h at IC50 concentration
Method: (§3) Cells (1 × 10^6) were seeded in 35 mm dishes and cultured for 24 h in the appropriate medium until they reached log phase growth. […] After incubation, the medium was removed, the cells were washed with PBS solution and trypsinized. The harvested cell pellet was lysed in RIPA buffer (50 mM Tris-HCL, pH 8.0, with 150 mM sodium chloride, 1.0% Igepal CA-630 (NP-40), 0.5% sodium deoxychlorate, and 0.1% sodium dodecyl sulfate) with protease inhibitor (phenylmethylsulfonyl fluoride) (Sigma-Aldrich Sigma, St. Louis, MO, USA). The level of cleaved PARP was estimated using the PARP Cleaved [214/215] ELISA kit (Invitrogen, Waltham, MA, USA) according to the protocol described in the manufacturer’s instructions.

human cancer cell lines = assay: MTT cytotoxicity, summary statements over the cancer cell line panel; type: cell-based; conditions: read-out: IC50 for seven (2c) and six (3c) cancer cell lines
Method: Cytotoxicity was evaluated against fifteen adherent human cancer cell lines using the MTT test: colorectal adenocarcinoma cells Caco2 (ATCC® HTB-37™), colorectal adenocarcinoma cells HT29 (ATCC® HTB-38™), colon colorectal carcinoma HCT116 (ATCC® CCL-247™), colon adenocarcinoma COLO205 (ATCC® CCL-222™), colorectal adenocarcinoma SW620 (ATCC® CCL-227™), colorectal adenocarcinoma grade IV LoVo (ATCC® CCL-229™), hepatocellular carcinoma Hep 3b (ATCC® HB-8064™), endometrium adenocarcinoma HEC1A (ATCC® HTB-112™), Ishikawa (99040201; Sigma–Aldrich Sigma, St. Louis, MO, USA), cervical adenocarcinoma cells HeLa (ATCC® CCL-2™), lung epithelial carcinoma A549 (ATCC® CRM-CCL-185™), breast epithelial adenocarcinoma cell positive for estrogen and progesterone receptors MCF7 (ATCC® HTB-22™) and negative for expression of estrogen receptor HCC38 (ATCC® CRL-2314™), acute promyelocytic leukemia HL-60 (ATCC® CCL-240™), skin melanoma WM115 (ATCC® CRL-1676™), and 1 suspension cancer cell line: acute lymphoblastic leukemia NALM6 (purchased from the German Collection of Microorganisms and Cell Cultures). […]
The cytotoxicity was tested by a standard MTT [3-(4,5-dimethylthiazol-2-yl)-2,5-diphenyltetrazolium bromide] […] The anticancer activity of the investigated compounds was evaluated in vitro on the basis of their ability to inhibit the proliferation of various cancer cells. […]

Colo205 [6] = assay: RNS generation, DAF-FM probe, COLO205; type: cell-based, human; conditions: COLO205, 24 h at IC50 concentration
PARP1 [7] = assay: Cleaved PARP level (ELISA), COLO205 cells; type: cell-based, human; conditions: COLO205, 24 h at IC50 concentration
Method: as §3

HEC1A [8] = assay: Mitochondrial potential, JC-1 probe, HEC1A; type: cell-based, human; conditions: IC50 concentration
Method: Cells (10 × 10^3/well) were seeded in black 96-well plates and grown for 24 h to reach the log phase. […] After removing the medium, the cell monolayer was washed twice with PBS solution and 50 μL of the JC-1 probe at a final concentration of 5 μM was added to the wells of the plate. The cells were incubated with the dye for 30 min in a CO2 incubator. Subsequently, the changes in the fluorescence of monomers (λex = 485 nm and λem = 525 nm) and aggregates (λex = 530 nm and λem = 590 nm) using JC-1 were monitored. The results of the tested trials were presented as the ratio of fluorescence of aggregates and JC1 monomers as a percentage of control values, which was assumed to be 100%.

Row | Lipophilicity, RM (Lipophilicity by RP-TLC) | Structure (SMILES) | IC50 (HT29) | IC50 (Colo205 [1]) | IC50 (SW620) | IC50 (LoVo) | IC50 (Caco2) | IC50 (Hep 3b) | IC50 (HEC1A [2]) | IC50 (Ishikawa) | IC50 (Hela) | IC50 (A549) | IC50 (HCC38) | IC50 (MCF7) | IC50 (WM115) | IC50 (NALM6) | IC50 (HL60) | IC50 [3] | IC50 for HMEC-1 higher than for cancer cells (selectivity) [3] | increase in level of PARP1 degradation compared to controls (PARP1 [5]) | also measured
1 | 1.64 | Cc1cc(O)n(C(N)=S)n1.Cc1ccc(C(C)C)cc1.[Cl-].[Cl][Ru+] [2d] | 168 ± 7.5 µM | > 200 µM | > 200 µM | > 200 µM | > 200 µM | > 200 µM | 67.8 ± 6.1 µM | 100 ± 6.7 µM | 111 ± 1.7 µM | > 200 µM | > 200 µM | > 200 µM | 8 ± 0.9 µM | > 200 µM | > 200 µM | 163 ± 5.9 µM | 3–5 times | approximately 115% | Stability, UV–Vis absorption maxima ([4]; pH 4 buffer): did not change; Stability, UV–Vis absorption maxima ([4]; pH 8 buffer): loss absorption
2 | 2.61 | Cc1ccc(C(C)C)cc1.F[P-](F)(F)(F)(F)F.NC(=S)n1nc(-c2ccccc2)cc1O.[Cl-].[Ru+2] [3c] | 128 ± 4.2 µM | 26.7 ± 2.1 µM | 90.1 ± 1.7 µM | 32.4 ± 1.8 µM | 172 ± 8.2 µM | 52.1 ± 3.4 µM | 39.9 ± 4.1 µM | 124.3 ± 0.9 µM | 78.8 ± 1.1 µM | 191 ± 4.3 µM | 131 ± 2.2 µM | 30.4 ± 2.1 µM | 18.7 ± 1.7 µM | 19.8 ± 1.8 µM | 70.4 ± 6 µM | 164 ± 3.1 µM | 3–5 times |  | IC50 (human cancer cell lines): < 50 µM; increase in nitrogen peroxide (RNS, DAF-FM probe) vs. control (Colo205 [6]): ~25%; increase in level of PARP1 degradation vs. control (PARP1 [7]): approximately 85%
3 | 2.73 | CCc1cc(CC)n(C(N)=S)n1.Cc1ccc(C(C)C)cc1.F[P-](F)(F)(F)(F)F.[Cl-].[Ru+2] [3b] | 123 ± 3.7 µM | 91.6 ± 1.6 µM | 78.8 ± 7.4 µM | 99.1 ± 9.4 µM | 82.4 ± 8.4 µM | 62.4 ± 2.7 µM | 40.1 ± 2.1 µM | 121 ± 3.7 µM | 101 ± 6.7 µM | 162 ± 7.9 µM | > 200 µM | 132 ± 5.3 µM | 51.7 ± 5.3 µM | 18.5 ± 2.3 µM | 52.9 ± 2.1 µM | 135 ± 6.7 µM | 3–5 times | ~140% | decrease in mitochondrial potential (JC-1) (HEC1A [8]): ~50%
